Test results as given in article PMC7094215, “Synthesis and Evaluation of Antileishmanial and Cytotoxic Activity of Benzothiopyrane Derivatives” (Molecules, 2020).

How the values were obtained:
[1] = test system: intracellular amastigotes of L. panamensis (MHOM/CO/87/UA140-EGFP strain); assay: In vitro antileishmanial activity on intracellular amastigotes (GFP, flow cytometry); format: cell-based, Leishmania (V) panamensis; details: for SI (Selectivity Index = LC50/EC50): LC50 U-937 / EC50 L. panamensis amastigotes; for EC50: intracellular amastigotes in U-937 cells, 72 h exposure, mean ± SD, Probit
Procedure: Antileishmanial activity of compounds was determined according to the ability of the compound to reduce the infection by L. panamensis parasites. For this, the antileishmanial activity was tested on intracellular amastigotes of L. panamensis transfected with the green fluorescent protein gene (MHOM/CO/87/UA140-EGFP strain). Briefly, U-937 human cells at a density of 3 × 10^5 cells/mL in RPMI 1640 and 0.1 μg/mL of PMA (phorbol-12-myristate-13-acetate) were dispensed on 24-wells microplate and then infected with stationary phase growing L. panamensis promastigotes in 15:1 parasites per cell ratio. Plates were incubated at 34 °C and 5% CO2 for 3 h, and then cells were washed twice with phosphate buffer solution (PBS) to eliminate not internalized parasites. Fresh RPMI-1640 was added into each well (1 mL), and plates were incubated again. After 24 h of infection, the RPMI-1640 medium was replaced by fresh culture medium containing each compound at four serial dilutions (50, 12.5, 3.125 and 0.78 μg/mL) and plates were then incubated at 37 °C and 5% CO2 during 72 h, then, cells were removed from the bottom plate with 100 µL of EDTA/trypsin (250 mg) solution. The cells were centrifuged at 1100 rpm during 10 min at 4 °C, the supernatant was discarded, and cells were washed with 1 mL of cold PBS and centrifuged at 1100 rpm for 10 min at 4 °C. Cells were washed two times employing PBS, as previously, and after the last wash, the supernatant was discarded, and cells were suspended in 500 μL of PBS.
Cells were analyzed by flow cytometry employing a flow cytometer (FC 500MPL, Cytomics, Beckman Coulter. Pasadena, CA, USA) reading at 488 nm (exciting) and 525 nm (emitting) over an argon laser and counting 10,000 events. Infected cells were determined according to the events for green fluorescence (parasites). All determinations for each compound and standard drug were carried out by triplicate, in two experiments. Infected cells exposed to control drug (amphotericin B) were used as the control for antileishmanial activity (positive control), while infected cells incubated in the absence of any compound or drug were used as another control for infection (negative control). Nonspecific fluorescence was corrected by subtracting the fluorescence of unstained cells. Determinations were done by triplicate in at least two independent experiments.
The antileishmanial activity was determined according to the reduction of the percentage of fluorescent parasites determined according to the median fluorescence intensity (MFI) obtained for each experimental condition by cytometry. The parasite values for each concentration of compound were calculated by Equation (3), where the % of parasites in control well, corresponds to 100% of parasites:(3) % Parasites=(MFI exposed parasites/MFI unexposed parasites)×100
Then, the inhibition percentage was calculated with Equation (4):(4) % Inhibitors of Parasites=100−(% Parasites)
Results of antileishmanial activities were expressed as the median effective concentrations (EC50) measured by Probit method.

[2] = Cytotoxic activity, MTT method; format: cell-based; details: human, LC50
Procedure: Cytotoxicity of the compounds was evaluated on human monocytes (U-937 ATCC CRL-1593.2) in an exponential growth phase and adjusted at 1 × 10^5 cells/mL in RPMI-1640 enriched with 10% fetal bovine serum (FBS). One hundred microliters of cell suspension were dispensed in each well of a 96-wells microplate, and then 100 μL of 200-50-12.5 and 3.125 μg/mL concentration of each compound or standard drug (amphotericin B) were added dissolved in PBS with 0.5% DMSO. Cell exposed to compounds or standard drugs were incubated 72 h at 37 °C and 5% of CO2. Cytotoxic activity of each compound was determined according to the effect on the cell viability by the MTT microenzymatic method in which 3-(4,5-dimethylthiazol-2-yl)-2,5-diphenyltetrazolium bromide is reduced to a purple formazan product by mitochondrial enzyme succinate dehydrogenase. Thus, 10 μL/well of MTT solution (5 mg/mL) was added to each well of exposed and unexposed cells, and plates were incubated at 37 °C, 5% CO2 during 3 h. The reaction was stopped by adding 100 μL/well of isopropanol with 50% and 10% of SDS (sodium dodecyl sulfate). The concentration of formazan was determined spectrophotometrically at 570 nm (Varioskan, Thermo, Waltham, MA, USA) and intensity of color (absorbance) was registered as O.D. Cells exposed to control drug (amphotericin B) were used as control for toxicity (positive control) while cell incubated in the absence of any compound or drug were used as control for viability (negative control). Non-specific absorbance was corrected by subtracting absorbance (O.D) of the blank. Determinations were done by triplicate in at least two independent experiments.
Cytotoxicity was determined according to viability and mortality percentages obtained for each experimental condition (synthesized compounds, amphotericin B, and culture medium). Results were expressed as the mean lethal concentrations (LC50), the concentration necessary to kill 50% of cells, calculated by the parametric method of linear regression that permits doses-response analysis (Probit analysis).
Initially, viability percentages were calculated by Equation (1), where the O.D of control well, corresponds to 100% of viability:(1) % Viability=(O.D. exposed cells/O.D. unexposed cells)×100
Then, the percentage of cell growth inhibition was calculated using Equation (2):(2) % Inhibition =100−(% Viability)
The toxicity was defined according to LC50 values, using the follow scale: Toxic; LC50 < 100 μM; moderately toxic; LC50 > 100 μM and < 200 μM and potentially nontoxic; LC50 > 200 μM.

[3] = Leishmania panamensis, U-937, 72 h

| SMILES | SI (Selectivity Index = LC50/EC50) [1] | EC50 [1, 3] | CC50 at 72 h [2] | EC50 [1] | antileishmanial activity (in words) ([1]; intracellular amastigotes of L. panamensis) |
| --- | --- | --- | --- | --- | --- |
| O=CC1=Cc2ccccc2SC1c1ccc(F)cc1 (stereo not shown) [Compound 13b, 2-(4-Fluorophenyl)-2H-thiochromene-3-carbaldehyde] | 0.3 | 29.7 ± 4.4 µM | 9.6 ± 0.4 µM |  |  |
| O=C1CC(C(=O)O)Sc2ccccc21 (stereo not drawn) [20a (+), 4-oxo-thiochroman-2-carboxylic acid] | > 0.1 |  | > 48.1 µM | 505 ± 133 µM |  |
| CC(=O)C1=Cc2ccccc2SC1c1ccccc1 (stereo not shown) [Compound 8c, 1-(2-Phenyl-2H-thiochromen-3-yl)ethan-1-one] | < 2.3 | > 2.6 µM | 6 ± 0.4 µM |  |  |
| CCCCCCCCCCOC(=O)C1CC(=O)c2ccccc2S1 (stereo not shown) [Compound 22d, Decyl 4-oxo-thiochromane-2-carboxylate] | < 1.0 | > 144 µM | 140 ± 20.7 µM |  |  |
| CCOC(=O)C1CC(=NNC(=O)c2ccncc2)c2ccccc2S1 (stereo not shown) [Compound 26b, Ethyl 4-(2-isonicotinoylhydrazineylidene)thiochromane-2-carboxylate] | 0.3 | 53.2 ± 41 µM | 15.2 ± 0.2 µM |  |  |
| O=CC1=Cc2ccccc2SC1c1ccccc1[N+](=O)[O-] (stereo not shown) [Compound 13d, 2-(2-Nitrophenyl)-2H-thiochromene-3-carbaldehyde] | 2.6 |  | 23.9 ± 2.4 µM |  |  |
| COC(=O)C1=Cc2ccccc2SC1 [Compound 8b, Methyl 2H-thiochromene-3-carboxylate] | 2.8 | 126 ± 15.5 µM | 352 ± 47.5 µM |  | practically inactive |
| O=C1CC(C(=O)O)Sc2ccc(F)cc21 (stereo not shown) [Compound 20b, 6-Fluoro-4-oxo-thiochromane-2-carboxylic acid] | 0.1 | 3520 ± 3010 µM | 210 ± 78.7 µM |  |  |
| CCCCCCOC(=O)C1CC(=O)c2ccccc2S1 (stereo not shown) [Compound 22c, Hexyl 4-oxo-thiochromane-2-carboxylate] | < 2.1 | > 103 µM | 213 ± 47.9 µM |  |  |
| Cc1ccccc1NC(=O)C1CC(=O)c2ccccc2S1 (stereo not shown) [Compound 24c, 4-Oxo-N-(o-tolyl)thiochromane-2-carboxamide] | < 1.2 | > 101 µM | 119 ± 10.9 µM |  |  |
| COc1ccc2c(c1)SC(C(=O)O)CC2=O (stereo not shown) [Compound 20d, 7-Methoxy-4-oxo-thiochromane-2-carboxylic acid] | 0.3 | 277 ± 101 µM | 90.4 ± 16.4 µM |  |  |
| O=C(C1=Cc2ccccc2SC1c1ccc([N+](=O)[O-])cc1)c1ccc(Cl)cc1 (stereo not shown) [Compound 15c, (4-Chlorophenyl)(2-(4-nitrophenyl)-2H-thiochromen-3-yl)methanone] | 4.0 | 38.1 ± 11.3 µM | 151 ± 18.1 µM |  |  |
| CCCCCC1Sc2ccccc2C(O)=C1C(C)=O (stereo not shown) [Compound 10d, 1-(4-Hydroxy-2-pentyl-2H-thiochromen-3-yl)ethan-1-one] | 4.1 | < 20 µM | 51 ± 9 µM | 12.5 ± 3.3 µM |  |
| COc1ccc2c(c1)C(=O)CC(C(=O)O)S2 (stereo not shown) [Compound 20c, 6-Methoxy-4-oxo-thiochromane-2-carboxylic acid] | 0.2 | 494 ± 324 µM | 76.3 ± 8.6 µM |  |  |
